“Also recorded” adds a separate entry of the source.

These results are taken from US7049321B2, “Methods and pharmaceutical compositions for treatment of central and peripheral nervous system disorders and compounds useful therefor” (Israel Institute for Biological Research, priority 2002, dated 2006).

One data set addresses T1, M1 mAChR (Rattus norvegicus, UniProt P08482).
T1 construct: expressed in transfected cells; elsewhere rat pheochromocytoma cells
T1 sequence (P08482 1-460): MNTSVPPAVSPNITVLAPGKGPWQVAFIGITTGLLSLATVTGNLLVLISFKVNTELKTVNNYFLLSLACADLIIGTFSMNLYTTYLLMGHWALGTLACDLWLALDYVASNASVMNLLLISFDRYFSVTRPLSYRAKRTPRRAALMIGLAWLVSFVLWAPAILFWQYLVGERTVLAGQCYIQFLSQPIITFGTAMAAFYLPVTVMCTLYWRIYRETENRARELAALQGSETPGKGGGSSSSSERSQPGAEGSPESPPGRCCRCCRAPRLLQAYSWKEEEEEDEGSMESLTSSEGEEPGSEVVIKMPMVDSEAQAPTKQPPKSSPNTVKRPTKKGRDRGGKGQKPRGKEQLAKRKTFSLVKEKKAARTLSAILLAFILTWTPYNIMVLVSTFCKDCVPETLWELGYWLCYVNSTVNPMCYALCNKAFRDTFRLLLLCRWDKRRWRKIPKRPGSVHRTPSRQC
Kind of data set: α-APPs secretion in cell cultures stably transfected with the M1 mAChR. Conditions: for Emax: read-out: α-APPs secretion, % of maximal response of carbachol. Type of data set: cell-based. The procedure:
Cells were plated in 6 well culture plates and used at the age of 3–5 days after plating. […] Cells exposed to medium alone are referred as controls.
Cell supernatants were collected into Eppendorff tubes containing a cocktail of protease inhibitors (5 units/ml aprotinin, […], […] and 10^−4M Phenylmethylsulfonylfluoride (PMSF, a protease inhibitor); Sigma, USA). The collected media were concentrated with Centricon tubes (Amicon, Beverly, Mass., USA) and kept frozen for α-APPs secretion determination. Equal amounts of protein (50–100 μg) were loaded and separated on 10% sodium dodecyl sulfate-polyacrylamide gel electrophoresis (SDS-PAGE). Followed by western blotting onto nitrocellulose membrane, blocked by fat-free milk, and probed for 24 hours at 4° C., with anti-Alzheimer's precursor protein, A4 monoclonal antibody 22C11 (0.25 μg/ml; Boehringer Mannheim, Germany). The nitrocellulose membranes were washed and incubated for 2 hours at room temperature with peroxidase-linked goat anti-mouse IgG antibodies (Jackson Immunoresearch, USA), followed by extensive washout and staining with enhanced chemiluminescence detection system (Amersham). Quantitative evaluation of the immunoreactive bands, on the exposed films, was performed by video-imaging densitometry (Gel-aid software; Galai Co., Israel). APPs levels were expressed as x-fold increase over basal levels.

Data set [1] deals with Rat pheochromocytoma cells transfected with M1 mAChR. Briefly: Neurite outgrowth response. Type of data set: cell-based. The note with it: for Emax: Rattus norvegicus, read-out: Maximal response, percent of cells with neurites. The procedure:
Rat pheochromocytoma cells transfected with M1 mAChR cells were grown as described in Gurwitz et al, (NeuroReport 6, 485,1995). For determination of neurite outgrowth, cells plated in six-well plates were used 3–5 days after-plating. Growth factors were added 1 day after plating and muscarinic agonists were added for the last 24 hrs.
Cells were observed under an inverted microscope. The percent of cells with neurite longer than cell diameter were scored in three random fields of several hundred cells from each well. Results were expressed as a percent of cells with neurites. Treatments were performed in triplicate cells. Both NGF (50 ng/ml) and EGF (100 ng/ml) were added 1 day after plating. Muscarinic agonists were added 24 hours before scoring.

Data set [2] has the same test system. Type of data set: cell-based. Conditions: for Cell death induced by β-A25-35: β-A25-35 (1 μM), 24 hrs, serum-deprived. The procedure:
Confluent rat pheochromocytoma cells transfected with the M1 mAChR cultures were detached with trypsin, washed and plated in 24-well, 6-well, 60-mm or 100-mm plates that were precoated with rat tail collagen (Sigma, Israel). Several experiments were performed in serum-free medium. For 3-(4,5-dimethylthiazol-2-yl)-2,5-diphenyl-tetrazolium bromide (MTT) assay, cells (1.5×10^4) were plated in 96-well collagen-precoated plates, in serum-free medium, with or without various drugs for 24 hours. For differentiation, cells were grown in the presence of 1% FCS and 1% HS, with addition of 50 ng/ml NGF for 7 days, to cause full differentiation. […] After 7 days, cells were washed and the medium was either replaced to serum-free, or cells were detached and replated in serum-free medium. Cells in serum-free medium were treated either with Aβ peptides that were previously “aged” or with H2O2. Tested compounds were added together with the insults for the indicated time, unless otherwise stated.
Cells were plated in 96-well plates in 100 μl medium. After exposure to various treatments, 10 μl of 5 mg/ml MTT [3-(4,5-dimethylthiazol-2-yl)-2,5-diphenyl-tetrazolium bromide; Sigma, Israel] solution in phosphate-buffered saline (PBS) was added to each well. Plates were incubated for 2 hrs at 37° C. followed by hydrocholoric acid-isopropanol addition (100 μl of 0.04N HCl/isopropanol). Plates were read using ELISA reader at a wavelength of 570 nm.
The MTT assay measures primary early changes within the cells, reflecting the integrity of the electron transport chain and provides a readout of cellular redox activity. This test is a specific, early indicator of the mechanism of β-amyloid-mediated cell death and can be used to detect rapid inhibitory response.

Data set [3] relates to cells transfected with M1 mAChR. Briefly: Protection from H2O2-induced toxicity. It counts as cell-based, rat.
A further data set relates to trihexyphenidyl rats. Briefly: Passive avoidance in trihexyphenidyl-treated rats. Type of data set: in vivo, Wistar rats. Conditions: for Retention latency: 24 h; for Effect on passive avoidance: AF292 0.03, 0.05, 0.1, 0.3, 0.5 mg/kg p.o., AF267B 0.5, 1, 5; for MED: p.o. An excerpt: Trihexyphenidyl is a selective M1 muscarinic antagonist that crosses the blood brain barrier and induces memory and learning impairments (Bymaster et al. J Pharmacol Exp Ther 267: 16–24, 1993. Roldan et al Neurosci. Lett. 230: 93–96, 1997; Kimura et al Brain Res. 834: 6–12, 1999).
Naive Wistar rats were used in the experiments below. The passive avoidance (PA) task is comprised of training (acquisition) phase and a retention phase. In the training procedure each rat was individually placed in the small illuminated compartment and after 60 sec. of familiarization/adaptation, the door to the large compartment was opened and the latency to enter was measured (Initial Latency). Immediately following entry into the dark compartment, the door was closed and inescapable foot shock (0.6 mA for 3 sec) was delivered through the grid floor. A cutoff point of 180 sec was used for initial latency. […] After the acquisition trial the rat was returned to its home cage. Retention of the passive avoidance task was measured 24 h later, by again placing the rat in the light compartment and after a 60 sec adaptation interval, the door was opened and the latency to re-enter the dark compartment was measured. A cutoff point of 300 sec was used for retention latency.

A short description of data set [4]: Pharmacokinetic study in rats. It counts as in vivo. The note with it: rat; for biovailability in rats: in vivo; for AUC(0-inf) / Cmax / MRT / Tmax / half-life: plasma, Rats. An excerpt: The results of the PK profile of AF292 in rats and Beagle dogs (overnight fasting; drug administered in water solution; gavage) are listed in Table 1.
The mark [5] stands for this setting: oral, extrapolated for 10 mg/kg.

For `CC1=NCC2(CCN(C)CC2)S1` [AF150(S), 2,8-Dimethyl-1-thia-3,8-diaza-spiro[4.5]dec-2-ene], the Emax turned out to be 50% on M1 mAChR and 30% in data set [1]. Further, the “Cell death induced by β-A25-35” value in data set [2] is listed as “significantly attenuated”. Also, in data set [3], the “Protection from H2O2-induced toxicity” value is reported as “protect the cells”. In addition, the Retention latency with trihexyphenidyl rats (5 mg/kg p.o.) is 222 ± 25.6 s. The biovailability in rats in data set [4] is 31%.
With `CC[C@@H]1SC2(CCNCC2)NC1=O` [AF292, (S)-2-Ethyl-1-thia-4,8-diaza-spiro[4.5]decan-3-one], on M1 mAChR, the 50% effective concentration (EC50) was 3 µM; the “α-APPs secretion, comparison in words” value was “as effective as AF267B; also recorded: Equipotent with AF267B &”; the Emax worked out at 100%. For the same compound, in data set [1] (blocked by atropine), the Neurotrophic effect result is recorded as “neurotrophic”. For the same compound, in data set [2], the “MTT assay against Aβ 25–35 & H2O2 in cell cultures transfected with rat M1 mAChR” value was “Equipotent with AF267B & CCh at 100 μM; Even” and the “Cell death induced by β-A25-35” value is “significantly attenuated”. The “Protection from H2O2-induced toxicity” value in data set [3] is reported as “protect the cells”. In the data set with trihexyphenidyl rats, the “Effect on passive avoidance” value was “positive effects” and the MED is under 0.03 mg/kg. Further, in the data set on trihexyphenidyl rats (rat, in vivo), the Duration of action entry was “LONG DURATION OF ACTION” and the “Potency among the tested agonists” value is “most potent compound among the tested agonists”. Besides, in data set [4], the biovailability in rats was 49%. Moreover, in data set [4] (po, 10 mg/kg), the AUC(0-inf) worked out at 2150 ng·h/mL, the Cmax was 1910 ng/mL, the MRT was 90 min and the time of peak concentration (Tmax) worked out at 30 min. Also, the half-life in data set [4] (po, 10 mg/kg) is 59.4 min.
Turning to `CC[C@@H]1SC2(CCN(C)CC2)NC1=O` [AF267B, (S)-2-ethyl-8-methyl-1-thia-4,8-diaza-spiro[4.5]decan-3-one], on M1 mAChR, the EC50 came out at 3 µM; the “α-APPs secretion, % of maximal response of carbachol” value is recorded as “equal to maximal response of carbachol”; the Emax was 100%. Moreover, at M1 mAChR (10^−4M, maximal increase), the “α-APPs secretion, fold increase over control” value is recorded as “about 6 fold”. In addition, in data set [1], the Emax turned out to be 60%. In data set [2], the “MTT assay against Aβ 25–35 & H2O2 in cell cultures transfected with rat M1 mAChR” value was determined as 100% and the “Cell death induced by β-A25-35” value is recorded as “significantly attenuated”. For the same compound, the “Protection from H2O2-induced toxicity” value in data set [3] is given as “protect the cells”. Also, in the data set with trihexyphenidyl rats (0.5 mg/kg p.o.), the Retention latency amounted to 181.1 ± 35.4 s. Moreover, the Retention latency in the data set on trihexyphenidyl rats (1 mg/kg p.o.) turned out to be 290.1 ± 8.5 s. Also, in the data set with trihexyphenidyl rats, the “Effect on passive avoidance” value is on record as 0.5, 1, 5 positive effects and the MED result is listed as “MED 0.1–0.5 mg/kg, p.o”. Besides, in data set [4] (setting [5]), the AUC(0-inf) is 1550 ng·h/mL and the maximum concentration (Cmax) is 1700 ng/mL. For the same compound, in data set [4] (po, 5 mg/kg), the AUC(0-inf) came to 773 ng·h/mL, the maximum concentration (Cmax) was 852 ng/mL, the mean residence time (MRT) was 60 min and the time to peak (Tmax) was 15 min. Moreover, in data set [4] (po, 5 mg/kg), the half-life is 38.4 min.
